For 24 compounds, IC50 results are on record in patent US20170114070A1, “INHIBITORS OF THE WNT SIGNALLING PATHWAYS” (Bayer Pharma Aktiengesellschaft, priority 2014, published 2017).

The structures appear in SMILES notation. Where a name gives a salt, the structure may show the parent alone.

In assay [1] the test system is HCT116 FOPFlash (FOP control vector, non-functional TCF elements). Description: Cellular control reporter assay, HCT116 FOP control vector. Type of assay: cell-based. As to conditions: Homo sapiens, HCT-116; HCT116 stably transfected with FOP control vector; 36 hours incubation; luciferase expression; dilution series from 50 μM. As to the method: (§1) In a parallel approach, HCT116 cells were cotransfected with the FOP control vector and pcDNA3. The FOP vector is identical to the TOP construct, but it contains instead of functional TCF elements a randomized, non-functional sequence. For this transfection a stable transfected cell line was generated as well.
(§2) In preparation of the assay, the two cell lines were plated 24 hours before at 10000 cells per well of a 384 micro titre plate (MTP) in 30 μL growth medium. Selective inhibitory activity for small molecules on the mutated Wnt pathway was determined after parallel incubation of both (TOP and FOP) HCT116 reporter cell lines with a compound dilution series from 50 μM to 15 nM in steps of 3.16-fold dilutions in CAFTY buffer (130 mM NaCl, 5 mM KCl, 20 mM HEPES, 1 mM MgCl2, 5 mM NaHCO3, pH 7.4) containing 2 mM Ca^2+ and 0.01% BSA. The compounds were thereby serially prediluted in 100% DMSO and thereafter in addition 50 fold into the CAFTY compound dilution buffer (described above). From this dilution 10 μL were added to the cells in 30 μL growth medium and incubated for 36 hours at 37° C. and 5% CO2. Thereafter luciferase assay buffer (1:1 mixture of luciferase substrate buffer (20 mM Tricine, 2.67 mM MgSO4, 0.1 mM EDTA, 4 mM DTT, 270 μM Coenzyme A, 470 μM Luciferin, 530 μM ATP, ph adjusted to pH 7.8 with a sufficient volume of 5M NaOH) and Triton buffer (30 mL Triton X-100, 115 mL glycerol, 308 mg Dithiothreitol, 4.45 g Na2HPO4.2H2O, 3.03 g TRIS HCl, ad 1 l H20, pH 7.8) was added as equal volume to the compound solution on the cells to determine luciferase expression as a measure of Wnt signaling activity in a luminometer.

In assay [2] the test system is constitutive active Wnt pathway (HCT116 TOPFlash). In words: Cellular reporter assay, HCT116 Super TopFlash (constitutive active Wnt pathway). Type of assay: cell-based. Conditions: Homo sapiens, HCT-116; HCT116 stably transfected with Super TopFlash vector; 36 hours incubation; luciferase expression. As for the experimental part: In order to discover and characterize small molecules which inhibit the constitutive active colorectal cancer cell (CRC) Wnt pathway, a cellular reporter assay was employed. The corresponding assay cell was generated by transfection of the colorectal cancer cell line HCT116 (ATCC, #CCL-247) with the Super TopFlash vector (Morin, Science 275, 1997, 1787-1790; Molenaar et al., Cell 86 (3), 1996, 391-399). The HCT116 cell line is cultivated at 37° C. and 5% CO2 in DMEM/F-12 (Life Technologies, #11320-074), supplemented with 2 mM glutamine, 20 mM HEPES, 1.4 mM pyruvate, 0.15% Na-bicarbonate and 10% foetal bovine serum (GIBCO, #10270), this cancer cell line is pathophysiological relevant since it carries a deletion of position S45 in the β-catenin gene, leading to constitutive active Wnt signaling. Stable transfectants were generated by cotransfection with pcDNA3 and selection of stable transfected cells with 1 mg/ml G418.
as §1, §2
(In general: A reporter such as luciferase makes a cellular process visible.)

Turning to `O=C(CN1CCOCC1)Nc1cc(C(=O)Nc2cnc(-c3cncnc3)cn2)ccc1OC1CC1` [Example 27, 4-(cyclopropyloxy)-3-[(morpholin-4-ylacetyl)amino]-N-[5-(pyrimidin-5-yl)pyrazin-2-yl]benzamide], the IC50 in assay [1] is at least 50 µM; in assay [2], 16700 nM.

For the compound `CN1CCN(CC(=O)Nc2cc(C(=O)Nc3cnc(-c4ccccn4)cn3)ccc2OC(F)(F)F)CC1` [Example 40, 3-{[(4-methylpiperazin-1-yl)acetyl]amino}-N-[5-(pyridin-2-yl)pyrazin-2-yl]-4-(trifluoromethoxy)benzamide], the results for the IC50 in assay [1] and in assay [2] were at least 50 µM and 153 nM, respectively.

Regarding `CN1CCN(CC(=O)Nc2cc(C(=O)Nc3cnc(-c4ccccc4)cn3)ccc2OC2CC2)CC1` [Example 21, 4-(cyclopropyloxy)-3-{[(4-methylpiperazin-1-yl)acetyl]amino}-N-(5-phenylpyrazin-2-yl)benzamide], the 50% inhibitory concentration (IC50) in assay [1] was 11 µM; in assay [2] it was 16.8 nM.

In the case of `N=S1(=O)CCN(CC(=O)Nc2cc(C(=O)Nc3ccc(-c4ccccc4)nn3)ccc2OC(F)(F)F)CC1` [Example 62], the results for the IC50 in assay [1] and in assay [2] were 25.5 µM and 12500 nM, respectively.

`Cc1cccc(F)c1-c1cnc(NC(=O)c2ccc(OC(F)(F)F)c(NC(=O)CN3CCN(C)CC3)c2)cn1` [Example 29, N-[5-(2-fluoro-6-methylphenyl)pyrazin-2-yl]-3-{[(4-methylpiperazin-1-yl)acetyl]amino}-4-(trifluoromethoxy)benzamide]: the IC50 in assay [1] is at least 50 µM; in assay [2], 16700 nM.

As to `O=C(CN1CCOCC1)Nc1cc(C(=O)Nc2ccc(-c3cccnc3F)nn2)ccc1OC(F)(F)F` [Example 17, N-[6-(2-fluoropyridin-3-yl)pyridazin-3-yl]-3-[(morpholin-4-ylacetyl)amino]-4-(trifluoromethoxy)benzamide], the IC50 in assay [1] is at least 50 µM; in assay [2], 418 nM.

Regarding `Nc1ccc(-c2ccc(NC(=O)c3ccc(OC(F)(F)F)c(NC(=O)CN4CCOCC4)c3)nn2)cn1` [Example 16, N-[6-(6-aminopyridin-3-yl)pyridazin-3-yl]-3-[(morpholin-4-ylacetyl)amino]-4-(trifluoromethoxy)benzamide], the IC50 in assay [1] is at least 50 µM; in assay [2], 43.3 nM.

With `CN1CCN(CC(=O)Nc2cc(C(=O)Nc3ncc(-c4ccccc4)cn3)ccc2OC(F)(F)F)CC1` [Example 19, 3-{[(4-methylpiperazin-1-yl)acetyl]amino}-N-(5-phenylpyrimidin-2-yl)-4-(trifluoromethoxy)benzamide], the IC50 in assay [1] was at least 50 µM; in assay [2], 325 nM.

For `O=C(CN1CCOCC1)Nc1cc(C(=O)Nc2cnc(-c3ccccc3)cn2)ccc1OC1CC1` [Example 38, 4-(cyclopropyloxy)-3-[(morpholin-4-ylacetyl)amino]-N-(5-phenylpyrazin-2-yl)benzamide], the IC50 in assay [1] was at least 50 µM; in assay [2] it was 123 nM.

In the case of `CN1CCN(CC(=O)Nc2cc(C(=O)Nc3cnc(-c4cccc(Cl)c4)cn3)ccc2OC(F)(F)F)CC1` [Example 48, N-[5-(3-chlorophenyl)pyrazin-2-yl]-3-{[(4-methylpiperazin-1-yl)acetyl]amino}-4-(trifluoromethoxy)benzamide], the IC50 in assay [1] was 7.73 µM; in assay [2], 260 nM.

For `O=C(CN1CCOCC1)Nc1cc(C(=O)Nc2cnc(-c3cccc(F)c3)cn2)ccc1OC(F)(F)F` [Example 63, N-[5-(3-fluorophenyl)pyrazin-2-yl]-3-[(morpholin-4-ylacetyl)amino]-4-(trifluoromethoxy)benzamide], the values for the half-maximal inhibitory concentration (IC50) in assay [1] and in assay [2] were at least 50 µM and 16000 nM, respectively.

As for `CN1CCN(CC(=O)Nc2cc(C(=O)Nc3cnc(-c4ccnc(N)c4)cn3)ccc2OC(F)(F)F)CC1` [Example 56, N-[5-(2-aminopyridin-4-yl)pyrazin-2-yl]-3-{[(4-methylpiperazin-1-yl)acetyl]amino}-4-(trifluoromethoxy)benzamide], the values for the concentration for half-maximal inhibition (IC50) in assay [1] and in assay [2] were at least 50 µM and 2000 nM, respectively.

On to `O=C(CN1CCOCC1)Nc1cc(C(=O)Nc2cnc(-c3cnccn3)cn2)ccc1OC(F)(F)F` [Example 57, N-(2,2′-bipyrazin-5-yl)-3-[(morpholin-4-ylacetyl)amino]-4-(trifluoromethoxy)benzamide], for which the IC50 in assay [1] is at least 50 µM; in assay [2], 2400 nM.

Take `Nc1ccc(-c2cnc(NC(=O)c3ccc(OC(F)(F)F)c(NC(=O)CN4CCOCC4)c3)cn2)cn1` [Example 46, N-[5-(6-aminopyridin-3-yl)pyrazin-2-yl]-3-[(morpholin-4-ylacetyl)amino]-4-(trifluoromethoxy)benzamide]: the half-maximal inhibitory concentration (IC50) in assay [1] is at least 50 µM; in assay [2], 16800 nM.

In the case of `CN1CCN(CC(=O)Nc2cc(C(=O)Nc3cnc(-c4cnc(N)nc4)cn3)ccc2OC(F)(F)F)CC1` [Example 37, N-[5-(2-aminopyrimidin-5-yl)pyrazin-2-yl]-3-{[(4-methylpiperazin-1-yl)acetyl]amino}-4-(trifluoromethoxy)benzamide], the IC50 in assay [1] was at least 50 µM; in assay [2] it was 223 nM.

On to `O=C(CN1CCOCC1)Nc1cc(C(=O)Nc2cnc(-c3cccnc3)cn2)ccc1OC(F)(F)F` [Example 23, 3-[(morpholin-4-ylacetyl)amino]-N-[5-(pyridin-3-yl)pyrazin-2-yl]-4-(trifluoromethoxy)benzamide], for which the IC50 in assay [1] is 46 µM; in assay [2], 29.7 nM.

As to `O=C(CN1CCOCC1)Nc1cc(C(=O)Nc2cnc(-c3ccccc3)cn2)ccc1OC(F)(F)F` [Example 10, 3-[(morpholin-4-ylacetyl)amino]-N-(5-phenylpyrazin-2-yl)-4-(trifluoromethoxy)benzamide], the half-maximal inhibitory concentration (IC50) in assay [1] was at least 50 µM; in assay [2], 63.2 nM.

Consider `Cc1cccc(F)c1-c1cnc(NC(=O)c2ccc(OC(F)(F)F)c(NC(=O)CN3CCOCC3)c2)cn1` [Example 58, N-[5-(2-fluoro-6-methylphenyl)pyrazin-2-yl]-3-[(morpholin-4-ylacetyl)amino]-4-(trifluoromethoxy)benzamide], for which the values for the concentration for half-maximal inhibition (IC50) in assay [1] and in assay [2] were at least 50 µM and 2900 nM, respectively.

As to `Cc1ccccc1-c1cnc(NC(=O)c2ccc(OC(F)(F)F)c(NC(=O)CN3CCN(C)CC3)c2)cn1` [Example 42, N-[5-(2-methylphenyl)pyrazin-2-yl]-3-{[(4-methylpiperazin-1-yl)acetyl]amino}-4-(trifluoromethoxy)benzamide], the figures for the IC50 in assay [1] and in assay [2] were at least 50 µM and 120 nM, respectively.

With `CN1CCN(CC(=O)Nc2cc(C(=O)Nc3cnc(-c4cccnc4F)cn3)ccc2OC(F)(F)F)CC1` [Example 36, N-[5-(2-fluoropyridin-3-yl)pyrazin-2-yl]-3-{[(4-methylpiperazin-1-yl)acetyl]amino}-4-(trifluoromethoxy)benzamide hydrochloride], the IC50 in assay [1] is at least 50 µM; in assay [2], 120 nM.

For `O=C(CN1CCOCC1)Nc1cc(C(=O)Nc2cnc(-c3cc(F)cc(F)c3)cn2)ccc1OC(F)(F)F` [Example 31, N-[5-(3,5-difluorophenyl)pyrazin-2-yl]-3-[(morpholin-4-ylacetyl)amino]-4-(trifluoromethoxy)benzamide], the half-inhibitory concentration (IC50) in assay [1] came to 26.8 µM; in assay [2], 88.5 nM.

Consider `Nc1cc(-c2cnc(NC(=O)c3ccc(OC(F)(F)F)c(NC(=O)CN4CCOCC4)c3)cn2)ccn1` [Example 55, N-[5-(2-aminopyridin-4-yl)pyrazin-2-yl]-3-[(morpholin-4-ylacetyl)amino]-4-(trifluoromethoxy)benzamide], for which the IC50 turned out to be 26.2 µM in assay [1] and 17200 nM in assay [2].

In turn, `CN1CCN(CC(=O)Nc2cc(C(=O)Nc3cnc(-c4ccc(N)nc4)cn3)ccc2OC(F)(F)F)CC1` [Example 24, N-[5-(6-aminopyridin-3-yl)pyrazin-2-yl]-3-{[(4-methylpiperazin-1-yl)acetyl]amino}-4-(trifluoromethoxy)benzamide] gave a 50% inhibitory concentration (IC50) in assay [1] of at least 50 µM.

Take `O=C(Nc1ccc([N+](=O)[O-])cc1Cl)c1cc(Cl)ccc1O` [Ref., niclosamide, reference compound]: in assay [1], the 50% inhibitory concentration (IC50) turned out to be 3.1 µM.

What is called IC50 is the concentration at which inhibition is half-maximal. A high value points to a need for much substance.
